For 20 compounds, MIC50 and IC50 results are on record in US20260199483A1 (Bright Angel Therapeutics Inc., priority 2022, published 2026).

In brackets after ≈: the same amount, converted by molar mass.

Series [1] has as its system CaCi2. Put plainly: Antifungal sensitivity testing (broth microdilution MIC). The settings on record: CaCi2, 96-well broth microdilution, compounds in DMSO. Format: cell-based. As for the experimental part: Minimum inhibitory concentrations (MICs) were determined in flat bottom, 96-well plate format using a modified broth microdilution protocol as previously described (Singh et al., PLoS Pathog. 5, e1000532 (2009); LaFayette et al., PLoS Pathog. 6, 79-80 (2010)). Compounds were formulated in dimethyl sulfoxide (DMSO, Sigma-Aldrich Co.). Each compound was tested in duplicate in at least two independent experiments.
On the technique in general: Dilution methods test growth across graded concentrations, often in twofold steps.

The target in series [2] is T1, purified recombinant Yck2 (Candida albicans, UniProt A0A1D8PKB4).
T1 construct: Yck2 residues 37-345 were PCR amplified from C. albicans genomic DNA; His6 (N); TEV protease site (N); made in house; host or cells: E. coli BL21(DE3)-Gold
Put plainly: HotSpot kinase assay. Format: biochemical, C. albicans. As for the experimental part: IC50s were determined using the in vitro HotSpot kinase assay (purified enzymes, ^33P-ATP, an appropriate substrate and 1 μM ATP). For enzyme inhibition assays, compounds were tested in range of ten concentrations from 10 uM to 0.0005 uM using purified recombinant Yck2. Reaction conditions were 1 uM ATP, one hour incubation with inhibitor, and kinase activity detected using 33-ATP phosphorylation of an appropriately selected peptide substrate.
Yck2 residues 37-345 were PCR amplified from C. albicans genomic DNA and subcloned into the vector pMCSG53, which codes for a N-terminal His6 tag, TEV protease site, followed by the Yck2 protein. E. coli BL21(DE3)-Gold competent cells were transformed with this plasmid and the Yck2 protein was purified using methodology previously described (Stogios et al., ACS Chem. Biol. 13, 1322-1332 (2018)).

The nature of series [3]: Mammalian cell toxicity (Cell Titer-Glo). Particulars: human; HepG2 cells, 48 h incubation, Cell Titer-Glo luminescence. Format: cell-based. As for the experimental part: HepG2 cells were seeded overnight at 500 cells/well in 384-well plate, then incubated with compounds (10-point concentration titration) for 48 h. Cell Titer-Glo® reagent ([…]) was added to each well and after 10-minute incubation at room temperature the luminescent signal was measured using an Envision plate reader (Perkin Elmer).
Background: ATP-based viability assays read luminescence as a measure of living cells.

The MIC50 is the lowest concentration that inhibits either 50% of growth or 50% of the strains tested, depending on the study. A lower MIC50 goes with higher susceptibility. The IC50 is the concentration at which inhibition is half-maximal.

T1 sequence (A0A1D8PKB4 entry or part of it): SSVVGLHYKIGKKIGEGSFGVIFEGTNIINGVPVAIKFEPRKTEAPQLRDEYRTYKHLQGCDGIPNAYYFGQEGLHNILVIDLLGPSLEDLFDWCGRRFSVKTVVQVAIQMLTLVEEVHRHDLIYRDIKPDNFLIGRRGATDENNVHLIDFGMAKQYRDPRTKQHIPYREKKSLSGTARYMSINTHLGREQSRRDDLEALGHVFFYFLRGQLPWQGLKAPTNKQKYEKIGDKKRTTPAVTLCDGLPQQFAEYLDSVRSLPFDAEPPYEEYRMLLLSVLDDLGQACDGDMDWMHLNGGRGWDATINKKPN

In series [1], `O=C(NCCC(O)(Cn1cncn1)c1ccc(F)cc1F)c1ccc2c(-c3ccncc3)c(-c3ccc(F)cc3)nn2c1` (stereo not shown) [Compound I-148, N-(3-(2,4-difluorophenyl)-3-hydroxy-4-(1H-1,2,4-triazol-1-yl)butyl)-2-(4-fluorophenyl)-3-(pyridin-4-yl)pyrazolo[1,5-a]pyridine-6-carboxamide] showed an MIC50 of 6.25 µM (≈ 3.65 µg/mL). Also, the IC50 in series [2] was determined as 1.61 nM.
As for `Fc1ccc(-c2nn3cc(CNC[C@H]4CO[C@](Cn5cncn5)(c5ccc(F)cc5F)C4)ccc3c2-c2ccncc2)cc1` (stereo in doubt) [Compound I-256, 1-(trans-5-((1H-1,2,4-triazol-1-yl)methyl)-5-(2,4-difluorophenyl)tetrahydrofuran-3-yl)-N-((2-(4-fluorophenyl)-3-(pyridin-4-yl)pyrazolo[1,5-a]pyridin-6-yl)methyl)methanamine], the concentration for half-maximal inhibition (IC50) at 48 h in series [3] was determined as 11.8 µM.
Consider `Cn1cc(-c2ccnc3c2C(=O)N(CC2CCN(C[C@](O)(Cn4cncn4)c4ccc(F)cc4F)CC2)C3)c(-c2ccc(F)cc2)n1` [Compound I-238, (S)-6-((1-(2-(2,4-difluorophenyl)-2-hydroxy-3-(1H-1,2,4-triazol-1-yl)propyl)piperidin-4-yl)methyl)-4-(3-(4-fluorophenyl)-1-methyl-1H-pyrazol-4-yl)-6,7-dihydro-5H-pyrrolo[3,4-b]pyridin-5-one], for which the MIC50 in series [1] is 0.781 µM (≈ 0.502 µg/mL). For the same compound, in series [2], the IC50 turned out to be 7.84 nM.
In the same order, the values of `Cn1cc(-c2ccncc2COCC[C@@](O)(Cn2cncn2)c2ccc(F)cc2F)c(-c2ccc(F)cc2)n1` [Compound I-236, (S)-2-(2,4-difluorophenyl)-4-((4-(3-(4-fluorophenyl)-1-methyl-1H-pyrazol-4-yl)pyridin-3-yl)methoxy)-1-(1H-1,2,4-triazol-1-yl)butan-2-ol] are 2.34 µM (≈ 1.25 µg/mL) and 169 nM.
For the compound `Nc1nccc(-c2c(-c3ccc(F)cc3)ncn2C2CCN(CC(O)(Cn3cncn3)c3ccc(F)cc3F)CC2)n1` (stereo not shown) [Compound I-32, 1-(4-(5-(2-aminopyrimidin-4-yl)-4-(4-fluorophenyl)-1H-imidazol-1-yl)piperidin-1-yl)-2-(2,4-difluorophenyl)-3-(1H-1,2,4-triazol-1-yl)propan-2-ol], the MIC50 in series [1] is more than 50 µM.
`Nc1nccc(-c2c(-c3ccc(F)cc3)ncn2C2CCN(CCCn3c4c(c5cc(Cl)ccc53)CCNC4)CC2)n1` [Compound I-232, 4-(1-(1-(3-(6-chloro-1,2,3,4-tetrahydro-9H-pyrido[3,4-b]indol-9-yl)propyl)piperidin-4-yl)-4-(4-fluorophenyl)-1H-imidazol-5-yl)pyrimidin-2-amine]: the MIC50 in series [1] is more than 25 µM. Further, the IC50 in series [2] was determined as 2.61 nM.
As for `O=C(NC[C@@](O)(Cn1cncn1)c1ccc(F)cc1F)c1ccc2c(-c3ccncc3)c(-c3ccc(F)cc3)nn2c1` [Compound I-117, (R)-N-(2-(2,4-difluorophenyl)-2-hydroxy-3-(1H-1,2,4-triazol-1-yl)propyl)-2-(4-fluorophenyl)-3-(pyridin-4-yl)pyrazolo[1,5-a]pyridine-6-carboxamide], the MIC50 in series [1] turned out to be 0.195 µM (≈ 0.111 µg/mL). In series [2], the IC50 is 5.08 nM.
The compound `O=C(NCC1CCN(CC(O)(Cn2cncn2)c2ccc(F)cc2F)CC1)c1ccc2c(-c3ccncc3)c(-c3ccc(F)cc3)nn2c1` (stereo not shown) [Compound I-147, N-((1-(2-(2,4-difluorophenyl)-2-hydroxy-3-(1H-1,2,4-triazol-1-yl)propyl)piperidin-4-yl)methyl)-2-(4-fluorophenyl)-3-(pyridin-4-yl)pyrazolo[1,5-a]pyridine-6-carboxamide] had an MIC50 in series [1] of 0.0977 µM (≈ 0.0651 µg/mL). In addition, the IC50 in series [2] was determined as 36.8 nM.
For the compound `[2H]C([2H])(NCC(O)(Cn1cncn1)c1ccc(F)cc1F)c1ccc2c(-c3ccncc3)c(-c3ccc(F)cc3)nn2c1` (stereo not shown) [Compound I-261, 2-(2,4-difluorophenyl)-1-(((2-(4-fluorophenyl)-3-(pyridin-4-yl)pyrazolo[1,5-a]pyridin-6-yl)methyl-d2)amino)-3-(1H-1,2,4-triazol-1-yl)propan-2-ol], in series [1], the MIC50 was found to be 0.195 µM (≈ 0.109 µg/mL).
On to `Cn1cc(-c2ccnc3c2C(=O)N(CC2CCN(CC(O)(Cn4cncn4)c4ccc(F)cc4F)CC2)C3)c(-c2ccc(F)cc2)n1` (stereo not shown) [Compound I-230, 6-((1-(2-(2,4-difluorophenyl)-2-hydroxy-3-(1H-1,2,4-triazol-1-yl)propyl)piperidin-4-yl)methyl)-4-(3-(4-fluorophenyl)-1-methyl-1H-pyrazol-4-yl)-6,7-dihydro-5H-pyrrolo[3,4-b]pyridin-5-one], for which the MIC50 in series [1] is 1.88 µM (≈ 1.21 µg/mL). Further, the half-maximal inhibitory concentration (IC50) in series [2] was 2.93 nM.
`OC(Cn1cncn1)(c1ccc(F)cc1F)C(F)(F)c1ccc(-c2ccc(CNCc3ccc4c(-c5ccncc5)c(-c5ccc(F)cc5)nn4c3)cc2)cn1` (stereo not shown) [Compound I-262, 2-(2,4-difluorophenyl)-1,1-difluoro-1-(5-(4-((((2-(4-fluorophenyl)-3-(pyridin-4-yl)pyrazolo[1,5-a]pyridin-6-yl)methyl)amino)methyl)phenyl)pyridin-2-yl)-3-(1H-1,2,4-triazol-1-yl)propan-2-ol] gave an MIC50 in series [1] of 0.293 µM (≈ 0.222 µg/mL).
In the case of `Nc1nccc(-c2c(-c3ccc(F)cc3)ncn2C2CCN(C3CCN(CC(O)(Cn4cncn4)c4ccc(F)cc4F)CC3)CC2)n1` (stereo not shown) [Compound I-224], the MIC50 in series [1] came to 25 µM (≈ 16.5 µg/mL). Also, in series [2], the IC50 is 72.3 nM.
Taken in the same sequence, the figures for `OC(CN1CCC(Oc2cccc3c(-c4ccncc4)c(-c4ccc(F)cc4)nn23)CC1)(Cn1cncn1)c1ccc(F)cc1F` (stereo not shown) [Compound I-154, 2-(2,4-difluorophenyl)-1-(4-((2-(4-fluorophenyl)-3-(pyridin-4-yl)pyrazolo[1,5-a]pyridin-7-yl)oxy)piperidin-1-yl)-3-(1H-1,2,4-triazol-1-yl)propan-2-ol] were 0.195 µM (≈ 0.122 µg/mL) and 176 nM.
Turning to `O=C(NC[C@](O)(Cn1cncn1)c1ccc(F)cc1F)c1ccc2c(-c3ccncc3)c(-c3ccc(F)cc3)nn2c1` [Compound I-116, (S)-N-(2-(2,4-difluorophenyl)-2-hydroxy-3-(1H-1,2,4-triazol-1-yl)propyl)-2-(4-fluorophenyl)-3-(pyridin-4-yl)pyrazolo[1,5-a]pyridine-6-carboxamide], the MIC50 in series [1] was found to be 6.25 µM (≈ 3.56 µg/mL). In addition, the IC50 in series [2] was found to be 7.91 nM.
Consider `Cn1cc(-c2ccnc3c2C(=O)N(CC2CCN(C[C@@](O)(Cn4cncn4)c4ccc(F)cc4F)CC2)C3)c(-c2ccc(F)cc2)n1` [Compound I-237, (R)-6-((1-(2-(2,4-difluorophenyl)-2-hydroxy-3-(1H-1,2,4-triazol-1-yl)propyl)piperidin-4-yl)methyl)-4-(3-(4-fluorophenyl)-1-methyl-1H-pyrazol-4-yl)-6,7-dihydro-5H-pyrrolo[3,4-b]pyridin-5-one], for which the concentration for half-maximal inhibition (IC50) in series [2] is 1.14 nM.
For the compound `Cn1cc(-c2ccncc2COC2CCN(CC(O)(Cn3cncn3)c3ccc(F)cc3F)CC2)c(-c2ccc(F)cc2)n1` (stereo not shown) [Compound I-90, 2-(2,4-difluorophenyl)-1-(4-((4-(3-(4-fluorophenyl)-1-methyl-1H-pyrazol-4-yl)pyridin-3-yl)methoxy)piperidin-1-yl)-3-(1H-1,2,4-triazol-1-yl)propan-2-ol], in series [1], the MIC50 stood at 0.586 µM (≈ 0.354 µg/mL). Further, the IC50 in series [2] came out at 47.6 nM.
Turning to `O[C@@](CNCc1ccc2c(-c3ccncc3)c(-c3ccc(F)cc3)nn2c1)(Cn1cncn1)c1ccc(F)cc1F` [Compound I-253, (S)-2-(2,4-difluorophenyl)-1-(((2-(4-fluorophenyl)-3-(pyridin-4-yl)pyrazolo[1,5-a]pyridin-6-yl)methyl)amino)-3-(1H-1,2,4-triazol-1-yl)propan-2-ol], the MIC50 in series [1] was 0.137 µM (≈ 0.0761 µg/mL). In addition, in series [2], the concentration for half-maximal inhibition (IC50) was found to be 5.95 nM.
For `Nc1nccc(-c2c(-c3ccc(F)cc3)ncn2C2CCN(CC(=O)NCC(O)(Cn3cncn3)c3ccc(F)cc3F)CC2)n1` (stereo not shown) [Compound I-71, 2-(4-(5-(2-aminopyrimidin-4-yl)-4-(4-fluorophenyl)-1H-imidazol-1-yl)piperidin-1-yl)-N-(2-(2,4-difluorophenyl)-2-hydroxy-3-(1H-1,2,4-triazol-1-yl)propyl)acetamide], the IC50 in series [2] came out at 9.33 nM.
For `Nc1nccc(-c2c(-c3ccc(F)cc3)ncn2C2CCN(CCCC(O)(Cn3cncn3)c3ccc(F)cc3F)CC2)n1` (stereo not shown) [Compound I-58, 5-(4-(5-(2-aminopyrimidin-4-yl)-4-(4-fluorophenyl)-1H-imidazol-1-yl)piperidin-1-yl)-2-(2,4-difluorophenyl)-1-(1H-1,2,4-triazol-1-yl)pentan-2-ol], the MIC50 in series [1] is more than 25 µM. Further, the half-maximal inhibitory concentration (IC50) in series [2] turned out to be 3.19 nM.
With `O=C(NC1CCN(CC(O)(Cn2cncn2)c2ccc(F)cc2F)CC1)c1ccc2c(-c3ccncc3)c(-c3ccc(F)cc3)nn2c1` (stereo not shown) [Compound I-100, N-(1-(2-(2,4-difluorophenyl)-2-hydroxy-3-(1H-1,2,4-triazol-1-yl)propyl)piperidin-4-yl)-2-(4-fluorophenyl)-3-(pyridin-4-yl)pyrazolo[1,5-a]pyridine-6-carboxamide], in series [1], the MIC50 stood at 0.0651 µM (≈ 0.0425 µg/mL). Moreover, the IC50 in series [2] came to 32.9 nM.
